Laboratory results reported in patent US9956192B2, “Selective histone deactylase 6 inhibitors” (H. Lee Moffitt Cancer Center and Research Institute, Inc., priority 2012, dated 2018).

Key:
[1] = molecular target: human, recombinant full-length HDAC1 (Homo sapiens (Human), UniProt Q13547); assay: HDAC inhibition assay, HDAC1; assay type: biochemical; conditions: HDAC1 and HDAC6, not selective
[2] = system: antigen-specific T-cell responses; assay: In vivo antigen-specific T-cell responses to vaccination; design: species or system mice; conditions: in vivo treatment
From the text: Tubastatin A-treated macrophages are better activators of […] and restore the responsiveness of anergic T-cells in vitro. […] Mechanistically, Tubastatin-A disrupt […] pathway and tip the balance towards immunogenic rather than tolerogenic macrophages.

STAT3 in APCs = assay: STAT3 phosphorylation and recruitment to IL-10 gene promotor in APCs; assay type: cell-based
From the text: FIG. 26 is a flow chart depicting the experimental design of the in vitro antigen-presenting studies.
Human MCL cells display an enhanced expression of HDAC6. Disruption of HDAC6 in malignant B-cells inhibits their proliferation and is associated with induction of apoptosis. Pharmacologic or genetic disruption of HDAC6 in MCL cells augment their antigen-presenting capabilities leading to better T-cell activation and restoration of function of anergic Tcells in vitro. […] Disclosed herein is the rationale to use HDAC6 specific inhibitor(s) alone or in combination with STAT3 inhibitors in MCL.

[3] = system: JAK2/STAT3 in B16 murine melanoma cells; assay: JAK2/STAT3 phosphorylation in B16 melanoma in vivo
[4] = system: B16 murine melanoma cells; assay: B16 melanoma cell growth inhibition assay (MTS); assay type: cell-based
Procedure: The following day, media was changed to that containing various concentrations of HDACi or matched DMSO vehicle concentrations diluted in complete medium done in triplicate. […] Briefly, 20 μL of reagent were added per well and incubated at 37° C. for 3 hours.

[5] = system: acetyl-α-tubulin in B16 melanoma cells; assay: Tubulin acetylation Western blot assay; assay type: cell-based, murine; conditions: 24 h, low nanomolar treatment
Procedure: (§1) […]. B16 melanoma cells were plated at 10^5 cells/well in 12 well plates and allowed to adhere overnight. A 50 mM stock of compound was then added by serial dilutions in complete medium to the indicated concentrations. Cells were incubated for 24 h under humidified conditions (37° C., 5% CO2). Wells were then washed with cold PBS, and cells were lysed in a buffer containing 10 mM Tris-HCl pH 8.0, 10% SDS, […], 100 mM DTT, and 1× protease inhibitor (Roche). Cells were lysed for 30 min on ice and then sonicated for 8 min (8 cycles of 30 s on/30 s rest). Cells were then boiled for 10 min with 6× gel loading buffer and resolved on 4-15% gradient gels and subsequently transferred onto nitrocellulose membranes. Membranes were blocked with 5% milk in PBS-T and detection of specific antigens using antibodies against acetyl-H3 and H3 (Cell Signaling), and acetyl-α-tubulin and α-tubulin (Sigma). Bands were detected by scanning blots with LI-COR Odyssey imaging system using both 700 and 800 channels.

[6] = system: acetyl-H3 in B16 melanoma cells; assay: Histone acetylation Western blot assay; assay type: cell-based, murine; conditions: 24 h
Procedure: as §1

Chain of human, recombinant full-length HDAC1 (Q13547 whole entry): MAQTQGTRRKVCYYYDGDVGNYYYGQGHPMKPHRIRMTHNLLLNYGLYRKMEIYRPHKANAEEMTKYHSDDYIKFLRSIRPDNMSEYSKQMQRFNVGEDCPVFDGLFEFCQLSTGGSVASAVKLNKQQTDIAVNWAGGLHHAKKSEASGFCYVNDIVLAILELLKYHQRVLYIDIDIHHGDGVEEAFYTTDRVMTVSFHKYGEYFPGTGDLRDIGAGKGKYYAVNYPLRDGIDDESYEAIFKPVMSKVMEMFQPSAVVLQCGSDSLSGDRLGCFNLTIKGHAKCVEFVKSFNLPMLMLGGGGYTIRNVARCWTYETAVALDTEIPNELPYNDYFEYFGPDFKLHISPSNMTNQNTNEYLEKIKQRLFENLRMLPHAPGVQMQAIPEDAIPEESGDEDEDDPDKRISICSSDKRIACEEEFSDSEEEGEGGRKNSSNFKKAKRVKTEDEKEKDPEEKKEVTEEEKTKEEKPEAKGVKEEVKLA

## COc1ccccc1NC(=O)NCc1ccc(C(=O)NO)cc1 [Compound 1]
[1]
  HDAC inhibitory activity (in words): submicromolar HDAC inhibitory activity

## CN1CCc2c(c3ccccc3n2Cc2ccc(C(=O)NO)cc2)C1 [Tubastatin A]
[2]
  antigen-specific T-cell responses to vaccination: enhances antigen-specific T-cell responses to vaccination
STAT3 in APCs
  STAT3 phosphorylation and recruitment to the IL-10 gene promotor: decreased STAT3 phosphorylation and recruitment
[3]
  JAK2/STAT3 phosphorylation: inhibits JAK2/STAT3 phosphorylation

## COc1ccccc1NC(=O)N(CCCO)Cc1ccc(C(=O)NO)cc1 [Compound 5b, N-hydroxy-4-((1-(3-hydroxypropyl)-3-(2-methoxyphenyl)ureido)methyl)-benzamide]
[4]
  growth inhibition of B16 melanoma cell line (in words): performed very poorly in the cellular assay

## CCCCN(Cc1ccc(C(=O)NO)cc1)C(=O)Nc1ccccc1 [Compound 5g, 4-((1-butyl-3-phenylureido)methyl)-N-hydroxybenzamide]
[5]
  acetyl α-tubulin levels: dose-dependant increase of acetyl α-tubulin levels
[6]; 1 and 10 μM
  histone H3 acetylation: observable increase in histone H3 acetylation
[6]; low nanomolar treatment
  histone H3 acetylation: without a concamanent elevation of histone H3 acetylation

## O=C(NO)c1ccc(CN(CCc2ccccc2)C(=O)Nc2ccccc2)cc1 [Compound 5h, N-hydroxy-4-((1-phenethyl-3-phenylureido)methyl)benzamide]
[4]
  growth inhibition of B16 melanoma cell line (in words): capable of inhibiting the growth of B16 melanoma cell line
